From US11123350B2, “Metal delivery agents and therapeutic uses of the same” (THE UNIVERSITY OF MELBOURNE, priority 2006, dated 2021)
Residues, ends and D or L forms follow the SMILES beside them. *: point of attachment. Cbz = O=C(OCc1ccccc1)*; CH2F = FC*

Key:
G93A-SOD1 mice = settings: other reported pharmacological treatments (literature); cited from earlier work
[1] = test system: PI3K (Akt phosphorylation); assay: Western blot for PI3K activation (Akt phosphorylation) in APP-CHO cells; format: cell-based, Chinese Hamster; settings: 10 μM, 6 hr
Experimental: (§1) APP-CHO cells were treated with 10 μM metal-BTSC complexes for 6 hr and cell lysates examined for activation of PI3K and MAPK signal pathways.
(§2) APP-CHO cells were treated with 10 μM metal-BTSC complexes for 6 hr. Cells were extracted into Phosphosafe (Novagen) lysis buffer and proteins separated by gel-electrophoresis on 12% tris-glycine gels. Proteins were transferred to PVDF membranes and blocked with milk powder for 1 hr. Blots were then probed for total and phosphorylated forms of Akt, JNK and GSK3 using antibodies from Cell Signaling Technologies. After detection with secondary antisera (HRP-labelled), blots were analyzed for signals using chemiluminescence analysis on a GeneGnome image scanner. Activation of PI3K is shown by increased levels of phosphorylated Akt (p-Akt). Activated JNk is shown by increased p-JNK. Increased levels of deactivated GSK3 is shown by increased p-GSK3.

JNK = assay: Western blot for JNK activation (p-JNK) in APP-CHO cells; format: cell-based, Chinese Hamster; settings: 10 μM, 6 hr
Experimental: as §1, §2

Aβ1-40 = assay: Extracellular Aβ1-40 in conditioned medium of APP-CHO cells (ELISA); format: cell-based, Chinese Hamster; settings: 6 hr; for effect on Aβ1-40 levels at lower dose: 1 μM
Experimental: […] treatment regimes were used namely a control, 1 μM, 5 μM, 10 μM, 25 μM and 50 μM (FIG. 3). APP-transfected CHO cells were treated with each of the doses of [Cu(GTSM)] for 6 hr in serum-free medium and conditioned medium was then collected and assayed for Aβ1-40 peptide by routine […].
Five treatment regimes were used namely a control, 1 ? M, 5 ? M, 10 ? M, 25 ? M and 50 ? M (FIG. 4). APP-transfected CHO cells were treated with each of the doses of [Zn(BTSC)] for 6 hr in serum-free medium and conditioned medium was then collected and assayed for Aβ1-40 peptide by routine Aβ ELISA.
Generation of APP-transfected Chinese Hamster Ovary (CHO) APP-CHO cells were generated by expressing the 695-amino acid APP cDNA in the pIRESpuro2 expression vector (Clontech, Mountain View, Calif., USA). Cells were transfected using Lipofectamine 2000 and cultured in RPMI-1640 media supplemented with 1 mM glutamine and 10% fetal bovine serum (all from Invitrogen, Mount Waverley, Victoria, Australia). Transfected cells were selected and maintained using 7.5 μg/ml puromycin (Sigma-Aldrich).
Treatment of cells with Complexes. APP-CHO cells were passaged at a ratio of 1:5 and grown in 6 well plates for 3 days before experiments. Compounds were prepared as a 10 mM stock solution in DMSO and added to serum-free RPMI medium supplemented with puromycin. Medium was briefly mixed by aspiration prior to addition to cells. Control cultures were treated with vehicle (DMSO) alone. Cultures were incubated for 6 hr and conditioned media taken for measurement of […] levels by ELISA.
Double antibody capture enzyme-linked immunosorbent assay (ELISA) for Aβ detection. Aβ levels were determined in culture medium using the 384 well Aβ1-40 ELISA protocol. 384 well plates were coated with monoclonal antibody (mAb) G2-10 in carbonate-bicarbonate coating buffer (pH 9.6) for Aβ1-40 detection. The plates were left to incubate overnight at 4° C. with rocking. The plates were then washed three times with PBST at RT with rocking and the solution discarded after each wash. Then 100 μL of 0.5% (w/v) hydrolyzed casein in PBS (pH 7.4) was added to each well and left to incubate for 2 hr at 37° C. to prevent non-specific binding. The plates were then washed three times with PBST at RT with rocking. 20 ng of biotinylated mAb WO2 (epitope at Aβ5-8) was added to each well of the plates (10 μL/well at […]). 50 μL/well of Aβ1-40 standard peptide samples (MHRI, Melbourne, Australia), cell culture medium samples and the blanks were added. The plates were left to incubate overnight at 4° C. with rocking. The plates were washed nine times with PBST at RT with rocking. 25 μL streptavidin-labelled europium was added at a dilution of 1:1000. Plates were then washed ten times with PBST where the 9th and 10th wash was left on for 5 min before discarding. To develop the plates 80 μL of enhancement solution was added to each well and plates were read in a WALLAC Victor^2 plate reader with excitation (Ex) at 340 nm and emission (Em) at 613 nm. Aβ1-40 peptide standards and samples were assayed in triplicate. The values obtained from the triplicate wells were used to calculate the […] concentration (expressed as ng/mL) based on the standard curve generated on each plate and are given in Table 3.
APP-CHO cells were treated with 10 μM [Zn(ATSE)] with or without specific inhibitors of PI3K (LY294002), JNK (SP600125) or p38 (SB203580) (25 μM of each) for 6 hr and conditioned medium analyzed for levels of Aβ1-40 by routine ELISA.

EGFR = EGFR phosphorylation (tyr1068) in U87MG-EGFR cells (Western blot); format: cell-based; settings: added to CuGTSM-treated cells (25 μM CuGTSM)
Experimental: Transfected U87MG-EGFR cells were treated with 25 μM CuGTSM or DMSO as vehicle control for 5 hr and EGFR phosphorylation (tyr1068) determined by Western blot. Antisera to EGFRtyr1068 was routinely used as this is one of the critical tyrosine residues involved in EGFR activation and downstream signaling. It is also routinely reported in the literature on EGFR activation.

ERK, GSK3 and JNK = assay: Downstream phosphorylation of ERK, GSK3 and JNK in U87MG-EGFR cells (Western blot); format: cell-based; settings: 25 μM CuGTSM plus 10 μM PD153035; not completely ablated
Experimental: A study was carried out to determine if kinase pathways modulated by CuGTSM were mediated by activation of EGFR. This was done by treating U87MG-EGFR cells with 25 μM DMSO, CuGTSM, CuGTSM plus 10 μM PD153035 (EGFR inhibitor), or 10 μM PD153035 alone. The activation of ERK, GSK3 and JNK was then determined by Western blot.

[2] = test system: APP-transfected CHO cells; assay: Cellular zinc uptake of Zn-BTSC complexes (ICP-MS), with or without Cu2+; format: cell-based, Chinese Hamster; settings: 6 hr
Experimental: It was known that copper can transmetallate [Zn(BTSC)] complexes. Therefore, if [Zn(BTSC)] complexes were administered to the culture medium in the presence of exogenous Cu^2+, we would expect [Cu(BTSC)] complexes to form. To examine this, cells were exposed to 10 μM [Zn(ATSE)] or [Zn(ATSP)] with or without 5-50 μM Cu^2+ for 6 hr.
Supernatant was discarded and cell pellets frozen at −70° C. until metal levels were determined by inductively-coupled plasma mass spectrometry (ICP-MS) at the Department of Pathology, University of Melbourne. […] [Zn(ATSM)] and [Zn(ATSE)] induced 8.2±0.25 and 9.8±0.9-fold increases in cellular Zn levels respectively when compared to untreated controls (FIG. 2).
To examine this, cells were exposed to 10 μM [Zn(ATSE)] or [Zn(ATSP)] with or without 5-50 μM Cu^2+ for 6 hr. Co-treatment of cells with Cu and the Zn-BTSC complexes reduced the level of Zn uptake compared to Zn-BTSC alone (FIG. 5).

GSK3 = assay: Western blot for GSK3 phosphorylation and expression in APP-CHO cells; format: cell-based, Chinese Hamster; settings: 10 μM, 6 hr
Experimental: as §1, §2

For `CCN1C=CN(CC)C1=C1C2=NC(=C(c3n(CC)cc[n+]3CC)C3=NC(=C(c4n(CC)cc[n+]4CC)c4ccc([n-]4)C(c4n(CC)cc[n+]4CC)=C4C=CC1=N4)C=C3)C=C2.[Cl-].[Cl-].[Cl-].[Cl-].[Cl-].[Mn+3]` [AEOL 10150], the “Increased Life Span” value (G93A-SOD1 mice) is given as 20 days.

In the case of `CO/N=C(\C(=O)N[C@@H]1C(=O)N2C(C(=O)O)=C(CSc3nc(=O)c(=O)[nH]n3C)CS[C@H]12)c1csc(N)n1` [Ceftriaxone], the “Increased Life Span” value (G93A-SOD1 mice) is listed as 10 days.

For `CN(CC(=O)O)C(=N)N` [Creatine], the “Increased Life Span” value (G93A-SOD1 mice) is given as 20 days.

For `CCNC1=N[N+]2=C(C)C(C)=[N+]3N=C(NCC)[S][Cu-2]23[S]1` [CuATSE], the “activation of PI3K (Akt phosphorylation)” value [1] was “did not induce activation” and the “activation of JNK” value (JNK) was “did not induce activation”.

For `CC(=N\NC([S-])=Nc1ccccc1)/C(C)=N/NC([S-])=Nc1ccccc1.[Cu+2]` [CuATSP], the “activation of PI3K (Akt phosphorylation)” value [1] was “did not induce activation” and the “activation of JNK” value (JNK) was “did not induce activation”.

With `CNC(=S)NN=CC=NNC(=S)NC` [GTSMH2] the “effect on extracellular Aβ1-40 levels” value (Aβ1-40; 1-50 μM, serum-free medium) was “very small reduction”.

In the case of `COc1cc2ncnc(Nc3cccc(Br)c3)c2cc1OC` [PD153035], the “effect on CuGTSM-induced activation of EGFR” value (EGFR) is reported as “inhibited activation” and the “CuGTSM-induced phosphorylation of JNK, GSK3 and ERK” value (ERK, GSK3 and JNK) is reported as “decrease”.

In the case of `Nc1nc2ccc(OC(F)(F)F)cc2s1` [Riluzole], the “Increased Life Span” value (G93A-SOD1 mice) is given as 10 to 15 days.

For `C[S+]([O-])c1ccc(-c2nc(-c3ccncc3)c(-c3ccc(F)cc3)[nH]2)cc1` (stereo not shown) [SB203580, reference compound], the “effect of kinase inhibitor on the loss of Aβ by [Zn(ATSE)]” value (Aβ1-40; 25 μM inhibitor with 10 μM [Zn(ATSE)]) was “no effect”.

With `CCNC1=NN=C(C)C(C)=NN=C(NCC)[S][Zn][S]1` [[Zn(ATSE)]] the “fold increase in cellular zinc levels” value ([2]; 10 μM complex alone) was 9.7±0.7 fold, the “fold increase in intracellular zinc” value ([2]; 10 μM complex in the presence of 10 μM Cu2+) was 2.9±0.3 fold and the “fold increases in cellular Zinc levels” value ([2]; APP-CHO cells, 1-50 μM, vs untreated controls) was 9.8±0.9 fold. The “effect on Aβ1-40 levels at lower dose” value (Aβ1-40) was “greater reductions”, the “effect on Aβ1-40 levels at lower dose” value (Aβ1-40; listed as Zn-ATSE) was “inhibited” and the “activation of PI3K (Akt phosphorylation)” value [1] was “induced activated”. For the same compound, the “activation of JNK” value (JNK) was “induced activated”, the GSK3 expression (GSK3) was “increased” and the “phosphorylation (de-activation) of GSK3” value (GSK3) was “induced down-stream phosphorylation”.

For `CC1=[N+]2N=C(Nc3ccccc3)[S][Zn]23[S]C(Nc2ccccc2)=N[N+]3=C1C` [[Zn(ATSP)]], the “activation of PI3K (Akt phosphorylation)” value [1] was “did not induce activation”, the “activation of JNK” value (JNK) was “did not induce activation” and the GSK3 expression (GSK3) was “small increase”.

With `CCNC1=NN=C2CCCCC2=NN=C(NCC)[S][Zn][S]1` [[Zn(ChexTSE)]] the “effect on Aβ1-40 levels at lower dose” value (Aβ1-40) was “greater reductions” and the “effect on Aβ1-40 levels at lower dose” value (Aβ1-40; listed as Zn-Chex TSE) was “inhibited”.

For `COC(=O)C[C@H](NC(=O)[C@H](C)NC(=O)[C@@H](NC(=O)OCc1ccccc1)C(C)C)C(=O)CF` [zVAD-fink] (Cbz-Val-Ala-Asp(OMe)-CH2F), the “Increased Life Span” value (G93A-SOD1 mice) is listed as 27 days.

In the case of Vitamin E, the “Increased Life Span” value (G93A-SOD1 mice) is listed as “No effect”.
